Converted amounts (≈) assume the structure as drawn.
How the values were obtained:
[1] = test system: HeLa; experiment: Cytotoxicity against human HeLa cells after 24 to 48 hrs by MTT assay; format: functional, cell-based
[2] = test system: Streptococcus sobrinus; experiment: Antibacterial activity against Streptococcus sobrinus 6715 after 24 hrs by agar diffusion method; format: functional; details: Streptococcus sobrinus, 6715, 24 h
[3] = test system: Streptococcus oralis; experiment: Antibacterial activity against Streptococcus oralis PB182 after 24 hrs by agar diffusion method; format: functional; details: PB182, 24 h
[4] = test system: Streptococcus mutans; experiment: Antibacterial activity against Streptococcus mutans UA159 after 24 hrs by agar diffusion method; format: functional; details: UA159, 24 h
[5] = test system: Streptococcus gordonii; experiment: Antibacterial activity against Streptococcus gordonii 10558 after 24 hrs by agar diffusion method; format: functional; details: Streptococcus gordonii, 10558, 24 h
[6] = test system: Streptococcus sobrinus; experiment: Antibacterial activity against Streptococcus sobrinus 6715 assessed as total biofilm adherence inhibition after 18 hrs by microtechnique; format: functional
[7] = test system: Streptococcus mutans; experiment: Antibacterial activity against Streptococcus mutans UA159 assessed as total biofilm adherence inhibition after 18 hrs by microtechnique; format: functional
[8] = test system: Actinomyces naeslundii; experiment: Antimicrobial activity against Actinomyces naeslundii 12104 after 24 hrs by agar diffusion method; format: functional; details: Actinomyces naeslundii, 12104, 24 h
[9] = test system: Staphylococcus aureus; experiment: Antibacterial activity against Staphylococcus aureus 25923 after 24 hrs by agar diffusion method; format: functional; details: Staphylococcus aureus, 25923, 24 h

## CC(C)=CCC1=C(O)[C@@]2(C(=O)c3ccccc3)C(=O)[C@](CC=C(C)C)(C[C@H](CC=C(C)C)C2(C)C)C1=O
[1]
  IC50: 3300 nM

## CC(C)=CC[C@H]1C[C@@]2(CC=C(C)C)C(=O)[C@](C(=O)c3ccccc3)(C(=O)C3=C2O[C@H](C(C)(C)O)C3)C1(C)C [HYPERIBONE A]
[2]
  MBC: 53 µg/mL (≈ 102 µM)
  MIC: 3.3 µg/mL (≈ 6.36 µM)
[3]
  MBC: 26 µg/mL (≈ 50.1 µM)
  MIC: 1.65 µg/mL (≈ 3.18 µM)
[4]
  MBC: 53 µg/mL (≈ 102 µM)
  MIC: 3.3 µg/mL (≈ 6.36 µM)
[5]
  MBC: 26 µg/mL (≈ 50.1 µM)
  MIC: 1.65 µg/mL (≈ 3.18 µM)
[6]
  Activity: 1.65 µg/mL
[7]
  Activity: 1.65 µg/mL
[1]
  IC50: 176 nM
[8]
  MBC: 6.6 µg/mL (≈ 12.7 µM)
  MIC: 1.65 µg/mL (≈ 3.18 µM)
[9]
  MBC: 5.85 µg/mL (≈ 11.3 µM)
  MIC: 0.73 µg/mL (≈ 1.41 µM)
